Read-outs that look alike come from different tables or passages of the source.
How the values were obtained:
[1] = DPPH radical scavenging assay; format: biochemical
Method in brief: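 Compounds at 0.06, 0.12, 0.18, 0.23, 0.25 and 0.28 mM reacted with the stable DPPH• radical. Absorbance at 517 nm was read 5 and 10 min after mixing to follow DPPH reduction, with L-ascorbic acid as the reference.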

[2] = test system: A549 (lung adenocarcinoma); experiment: MTT proliferation assay, A549; format: cell-based; conditions: Homo sapiens, 72 h
Method in brief: (§1)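 The 72 h proliferation test exposed cells, seeded at 5000 per well a day before, to compound concentrations spanning 0.01 μM to 100 μM. Viability was measured by MTT reduction over 3 h with absorbance at 570 nm, and IC50 values were derived by regression of the concentration–growth curves.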

[3] = test system: CFPAC-1 (ductal pancreatic adenocarcinoma); experiment: MTT proliferation assay, CFPAC-1; format: cell-based; conditions: Homo sapiens, 72 h
Method in brief: as §1

[4] = test system: HCT-116 (colorectal carcinoma); experiment: MTT proliferation assay, HCT-116; format: cell-based; conditions: Homo sapiens, 72 h
Method in brief: as §1

[5] = test system: HeLa (cervical carcinoma); experiment: MTT proliferation assay, HeLa; format: cell-based; conditions: Homo sapiens, 72 h
Method in brief: as §1

[6] = test system: HepG2 (hepatocellular carcinoma); experiment: MTT proliferation assay, HepG2; format: cell-based; conditions: Homo sapiens, 72 h
Method in brief: as §1

[7] = test system: MCF-7 (breast adenocarcinoma); experiment: MTT proliferation assay, MCF-7; format: cell-based, Human; conditions: for IC50: Homo sapiens, MCF7, 72 h, MTT
Method in brief: as §1

[8] = test system: SW620 (colorectal adenocarcinoma, metastatic); experiment: MTT proliferation assay, SW620; format: cell-based; conditions: Homo sapiens, SW-620, 72 h
Method in brief: as §1

[9] = test system: HFF-1 (foreskin fibroblasts); experiment: MTT proliferation assay, HFF-1; format: cell-based; conditions: Homo sapiens, 72 h, normal foreskin fibroblasts
Method: Human tumor cell lines HeLa (cervical carcinoma), SW620 (colorectal adenocarcinoma, metastatic), A549 (lung adenocarcinoma), MCF−7 (breast adenocarcinoma), CFPAC-1 (pancreatic adenocarcinoma, metastatic), HCT-116 (colorectal carcinoma), and HepG2 (hepatocellular carcinoma), and normal cell lines HFF-1 (foreskin fibroblasts) and WI-38 (immortalized human lung fibroblast), were from the US American Type Culture Collection (ATCC, Manassas, VA, USA). Cells were cultured in a liquid nutrient medium (Dulbecco’s Modified Eagle Medium, LONZA, Basel, Switzerland) supplemented with 10% fetal bovine serum (FBS, Gibco, Grand Island, NY, USA), 2 mM L-glutamine (GIBCO, Grand Island, NY, USA), 100 μg/mL penicillin, and 100 μg/mL streptomycin (LONZA, Basel, Switzerland), in an incubator (NÜVE, Ankara, Turkey), at a humid atmosphere with 5% CO2 at 37 °C. Trypsin/EDTA Solution (Lonza, Basel, Switzerland), was used for cell passaging and cell detachment.
Adherent cells were seeded on 96 well microtiter plates (Falcon, New York, NY, USA) at a seeding density of 5000 cells per well, added in 150 μL of cell suspension in a nutrient medium. 24 h after seeding, cells were treated with compound 4b–4g, 4i, 4k–4t, 4v, 7c–7g, and 7i–7q dilutions in the range of 0.01 μM to 100 μM. L-ascoric acid (Sigma Aldrich, Darmstadt, Germany) and Carboxyamidotriazole (Sigma Aldrich, Darmstadt, Germany) were used as control compounds. Incubation of the cells with the compounds were performed for 72 h in a 5% CO2, in humid atmosphere at 37 °C. After incubation, nutrient medium was removed and 40 μL of the MTT reagent ([…]-2,5-diphenyltetrazole bromide (Invitrogen, Carlsbad, CA, USA) was added to each well. 3 h after incubation, 160 μL of DMSO (VWR CHEMICALS, Radnor, PA, USA) were added to each well to dissolve the crystals of purple formazane. The absorbance was measured at 570 nm (TECAN SUNRISE Microtiter plate reader (Männedorf, Switzerland). The experimentally measured optical densities (OD) were converted to the PG (percentage of growth), using the formulas according to the protocol assumed by NIH (National Institute of Health). The IC50 values (concentration causing 50% cell growth inhibition) for each compound were calculated by regression analysis of the survival count curve of the concentrations of the tested compounds. The results were processed in Excel 2010 (Microsoft, Redmond, WA, USA).

MCF-7 cells = experiment: Seahorse XF Cell Mito Stress Test, MCF-7; format: cell-based, Human
Method: The Seahorse XF Cell Mito Stress Test was used for measurements of mitochondrial respiration by direct assessment of the oxygen consumption rate (OCR), of treated and untreated cells on the Seahorse XFe24 Analyzer, (Agilent, Santa Clara, CA, USA). Key parameters of the mitochondrial function were measured by direct assessment of the OCR, by use of the Mito Stress Test (Agilent, Agilent, Santa Clara, CA, USA). The Mito Stress Test uses modulators of respiration that target components of the electron transport chain in the mitochondria. The compounds added to the reaction were: oligomycin, mitochondrial oxidative phosphorylation uncoupler carbonyl cyanide-4-(trifluoromethoxy)phenylhydrazone (FCCP), and the mix of rotenone and antymicin A. These were directly injected to the cell growth medium containing cells treated with selected L-ASA derivatives to determine the production of ATP, respiration at maximal level, and the non-mitochondrial respiration. Measured parameters were used for calculation of the proton leakage, spare respiratory capacity, and basal respiration. The assay was performed according to the manufacturer’s instructions (SeaHorse—Mito Stress Test: Agilent, Santa Clara, CA, USA). Briefly, selected compound 4e was tested due to its selective antiproliferative effect on MCF-7 cells. […] […] The experiment was performed with biological duplicates.

[10] = 5 min treatment, read-out: IC50 of DPPH• inhibition, Treatm. 5 min
[11] = 10 min treatment, read-out: IC50 of DPPH• inhibition, Treatm. 10 min

**Q.** Which results are given for O=C1O[C@H]([C@@H](O)Cn2cc(-c3ccc(Br)cc3)nn2)C(O)=C1O [Compound 4e, 6-[4-(4-bromophenyl)-1,2,3-triazol-1-yl]-6-deoxy-L-ascorbic acid]?
**A.** IC50 [1, 10]: 200 ± 10 µM; IC50 [1, 11]: 190 ± 10 µM; IC50 [2]: 25.4 µM; IC50 [3]: > 100 µM; IC50 [4]: > 100 µM; IC50 [5]: > 100 µM; IC50 [6]: > 100 µM; IC50 [7]: 6.72 µM; selectivity index, SI ([7]; WI-38 versus MCF-7): 11; IC50 [8]: > 100 µM; IC50 [9]: > 100 µM; basal respiration and ATP production (MCF-7 cells; MCF-7, 24 h, IC50 concentration (6.72 µM) and 2 × IC50 (13.44 µM)): increased the basal respiration and ATP production; cellular mitochondrial metabolism (MCF-7 cells; MCF-7, 24 h, lower tested concentration (3.36 µM)): lowered cellular mitochondrial metabolism

**Q.** For O=C1O[C@H]([C@@H](O)CO)C(O)=C1O [L-ASA, L-ascorbic acid], which IC50 [1, 10] is on record?
**A.** Its IC50 is 180 ± 60 µM.

**Q.** And the IC50 [1, 11]?
**A.** The IC50 was 170 ± 50 µM.

**Q.** What about the “pIC50 (negative logarithm of DPPH• IC50)” value ([1]; calculated from IC50 values of Table 1) of the same molecule?
**A.** Its value is 3.75.

**Q.** What about the IC50 [2] of the same molecule?
**A.** Its IC50 is > 100 µM.

**Q.** What about the IC50 [3] of the same molecule?
**A.** The IC50 was > 100 µM.

**Q.** What about the IC50 [4] of the same molecule?
**A.** The IC50 was > 100 µM.

**Q.** And the IC50 [5]?
**A.** The IC50 was > 100 µM.

**Q.** What about the IC50 [6] of the same molecule?
**A.** Its IC50 is > 100 µM.

**Q.** And the IC50 [7]?
**A.** The IC50 was > 100 µM.

**Q.** And the IC50 [8]?
**A.** The IC50 was > 100 µM.

**Q.** What about the IC50 [9] of the same molecule?
**A.** The IC50 was > 100 µM.

**Q.** What about the mitochondrial activity (MCF-7 cells; 24 h, lower concentration (50 mM), Figure 5 panel A (MCF-7 and HFF-1)) of the same molecule?
**A.** The mitochondrial activity was “did not act on the mitochondrial activity”.

**Q.** What about the “basal cell respiration and ATP production” value (MCF-7 cells; MCF-7, 24 h, higher concentrations) of the same molecule?
**A.** Its value is “decreased the basal cell respiration and ATP production”.

From PMC6801448, “The Antioxidant and Antiproliferative Activities of 1,2,3-Triazolyl-L-Ascorbic Acid Derivatives” (International Journal of Molecular Sciences, 2019)
